Experiments:
[1] = BEACON post-hoc review of EAC case packets for heart failure events within first four weeks; assay type: in vivo, human
Procedure: The first scheduled post-baseline assessment in BEACON was at Week 4. Since many of the heart failure events occurred prior to Week 4, the clinical database provides limited information to characterize these patients. Post-hoc review of the EAC case packets for heart failure cases that occurred prior to Week 4 was performed to assess clinical, vitals, laboratory, and imaging data collected at the time of the first heart failure event (Tables 13 and 14).
Baseline central laboratory values from the clinical database were compared to local laboratory values obtained on admission for heart failure that were included in the EAC packets.

[2] = Open label dose-ranging study 402-C-0902 in type 2 diabetic patients with stage 3b-4 CKD; assay type: in vivo, human; set-up: ΔSBP, change from baseline / ΔDBP, change from baseline: unit not given beside the values
[3] = 2.5 mg once daily 85 days, CKD Stage 3b/4, N = 14
[4] = 2.5 mg once daily 85 days, CKD Stage 3b, N = 10
[5] = 2.5 mg once daily 85 days, CKD Stage 4, N = 4
[6] = 5 mg once daily 85 days, CKD Stage 3b/4, N = 24
[7] = 5 mg once daily 85 days, CKD Stage 3b, N = 19
[8] = 5 mg once daily 85 days, CKD Stage 4, N = 5
[9] = 10 mg once daily 85 days, CKD Stage 3b/4, N = 24
[10] = 10 mg once daily 85 days, CKD Stage 3b, N = 20
[11] = 10 mg once daily 85 days, CKD Stage 4, N = 4
[12] = 15 mg once daily 85 days, CKD Stage 3b/4, N = 48
[13] = 15 mg once daily 85 days, CKD Stage 3b, N = 26
[14] = 15 mg once daily 85 days, CKD Stage 4, N = 22
[15] = 30 mg once daily 85 days, CKD Stage 3b/4, N = 12
[16] = 30 mg once daily 85 days, CKD Stage 3b, N = 3
[17] = 30 mg once daily 85 days, CKD Stage 4, N = 9

COC(=O)[C@]12CCC(C)(C)C[C@H]1[C@H]1C(=O)C=C3[C@@]4(C)C=C(C#N)C(=O)C(C)(C)[C@@H]4CC[C@@]3(C)[C@]1(C)CC2 [Bardoxolone methyl, methyl-2-cyano-3,12-dioxooleana-1,9-dien-28-oic acid]
LVEF at HF hospitalization, mean ([1]; n = 23): 52% ±
Serum Sodium at HF hospitalization, mean ([1]; n = 30): 139.0 mmol/L
Serum Sodium Δ (HF vs baseline), mean ([1]; n = 30): -1.0 mmol/L
Heart Rate at HF hospitalization, mean ([1]; n = 32): 81 bpm
Heart Rate Δ (HF vs baseline), mean ([1]; n = 32): 14.5 bpm
SBP at HF hospitalization, mean ([1]; n = 33): 154 mmHg
SBP Δ (HF vs baseline), mean ([1]; n = 33): 10.5 mmHg
DBP at HF hospitalization, mean ([1]; n = 34): 75 mmHg
DBP Δ (HF vs baseline), mean ([1]; n = 34): 7.9 mmHg
Serum Potassium at HF hospitalization, mean ([1]; n = 34): 4.8 mmol/L
Serum Potassium Δ (HF vs baseline), mean ([1]; n = 34): 0.1 mmol/L
Serum Creatinine at HF hospitalization, mean ([1]; n = 38): 2.7 mg/dL
Serum Creatinine Δ (HF vs baseline), mean ([1]; n = 38): -0.1 mg/dL
ΔDBP, change from baseline [2, 3]: 0.2 ± 1.8
ΔSBP, change from baseline [2, 3]: 0.1 ± 4.2
ΔDBP, change from baseline [2, 4]: 1 ± 2
ΔSBP, change from baseline [2, 4]: 0 ± 4.4
ΔDBP, change from baseline [2, 5]: −1.5 ± 3.9
ΔSBP, change from baseline [2, 5]: 0.3 ± 11
ΔDBP, change from baseline [2, 6]: −1.4 ± 1.5
ΔSBP, change from baseline [2, 6]: −1.5 ± 2.3
ΔDBP, change from baseline [2, 7]: −1.3 ± 1.4
ΔSBP, change from baseline [2, 7]: −2.1 ± 2 ^
ΔDBP, change from baseline [2, 8]: −1.4 ± 5.6
ΔSBP, change from baseline [2, 8]: 0.5 ± 9.1
ΔDBP, change from baseline [2, 9]: 0.3 ± 1.3
ΔSBP, change from baseline [2, 9]: −2.4 ± 3.1
ΔDBP, change from baseline [2, 10]: −0.3 ± 1.3
ΔSBP, change from baseline [2, 10]: −4.2 ± 3.4
ΔDBP, change from baseline [2, 11]: 3.6 ± 4.5
ΔSBP, change from baseline [2, 11]: 6.1 ± 6.7
ΔDBP, change from baseline [2, 12]: −1 ± 1.2
ΔSBP, change from baseline [2, 12]: 1.1 ± 2.3
ΔDBP, change from baseline [2, 13]: −1.3 ± 1.5
ΔSBP, change from baseline [2, 13]: −2.2 ± 3.3
ΔDBP, change from baseline [2, 14]: −0.6 ± 1.9
ΔSBP, change from baseline [2, 14]: 5 ± 2.8
ΔDBP, change from baseline [2, 15]: 3.2 ± 2.2
ΔSBP, change from baseline [2, 15]: 7.2 ± 6.2
ΔDBP, change from baseline [2, 16]: −1.8 ± 3.9
ΔSBP, change from baseline [2, 16]: −0.4 ± 13.8
ΔDBP, change from baseline [2, 17]: 4.7 ± 2.5
ΔSBP, change from baseline [2, 17]: 9.7 ± 7.3
Blood pressure changes ([2]; 2.5 to 30 mg, 85 consecutive days, amorphous dispersion formulation): no dose-related trend in blood pressure changes or change at any individual dose level was noted
AE, SOC Card: Cardiac failure congestive, patients n (%) ([2]; SDD 2.5 mg QD 85 days, N = 14): 0
AE, SOC Card: Oedema peripheral, patients n (%) ([2]; SDD 2.5 mg QD 85 days, N = 14): 0
AE, SOC Genrl: Oedema peripheral, patients n (%) ([2]; SDD 2.5 mg QD 85 days, N = 14): 0
AE, SOC Metab: Oedema peripheral, patients n (%) ([2]; SDD 2.5 mg QD 85 days, N = 14): 0
AE, SOC Resp: Dyspnoea exertional, patients n (%) ([2]; SDD 2.5 mg QD 85 days, N = 14): 1 (7)
AE, SOC Resp: Dyspnoea, patients n (%) ([2]; SDD 2.5 mg QD 85 days, N = 14): 0
SAE, SOC Card: Cardiac failure congestive, patients n (%) ([2]; SDD 2.5 mg QD 85 days, N = 14): 0
AE, SOC Card: Cardiac failure congestive, patients n (%) ([2]; SDD 5 mg QD 85 days, N = 25): 0
AE, SOC Card: Oedema peripheral, patients n (%) ([2]; SDD 5 mg QD 85 days, N = 25): 0
AE, SOC Genrl: Oedema peripheral, patients n (%) ([2]; SDD 5 mg QD 85 days, N = 25): 3 (12)
AE, SOC Metab: Oedema peripheral, patients n (%) ([2]; SDD 5 mg QD 85 days, N = 25): 0
AE, SOC Resp: Dyspnoea exertional, patients n (%) ([2]; SDD 5 mg QD 85 days, N = 25): 0
AE, SOC Resp: Dyspnoea, patients n (%) ([2]; SDD 5 mg QD 85 days, N = 25): 0
SAE, SOC Card: Cardiac failure congestive, patients n (%) ([2]; SDD 5 mg QD 85 days, N = 25): 0
AE, SOC Card: Cardiac failure congestive, patients n (%) ([2]; SDD 10 mg QD 85 days, N = 28): 1 (4)
AE, SOC Card: Oedema peripheral, patients n (%) ([2]; SDD 10 mg QD 85 days, N = 28): 1 (4)
AE, SOC Genrl: Oedema peripheral, patients n (%) ([2]; SDD 10 mg QD 85 days, N = 28): 5 (18)
AE, SOC Metab: Oedema peripheral, patients n (%) ([2]; SDD 10 mg QD 85 days, N = 28): 0
AE, SOC Resp: Dyspnoea exertional, patients n (%) ([2]; SDD 10 mg QD 85 days, N = 28): 0
AE, SOC Resp: Dyspnoea, patients n (%) ([2]; SDD 10 mg QD 85 days, N = 28): 0
SAE, SOC Card: Cardiac failure congestive, patients n (%) ([2]; SDD 10 mg QD 85 days, N = 28): 1 (4)
AE, SOC Card: Cardiac failure congestive, patients n (%) ([2]; SDD 15 mg QD 85 days, N = 50): 0
AE, SOC Card: Oedema peripheral, patients n (%) ([2]; SDD 15 mg QD 85 days, N = 50): 1 (2)
AE, SOC Genrl: Oedema peripheral, patients n (%) ([2]; SDD 15 mg QD 85 days, N = 50): 3 (6)
